Test results: patent publication US7771652B2, “Combined use of an alkaline earth metal compound and a sterilizing agent to maintain osteoinduction properties of a demineralized bone matrix” (Novasterilis, Inc., priority 2008, dated 2010)

System: CFUs
Experiment: Reduction in CFUs with additive-containing supercritical carbon dioxide sterilant fluid
Format: cell-based
Conditions: additive in supercritical carbon dioxide under sterilization temperature and pressure conditions
Description: It has been observed that 6-log reductions in CFUs may be achieved in accordance with the present invention by subjecting materials to be sterilized under sterilization temperature and pressure conditions using an additive-containing supercritical carbon dioxide as a sterilant fluid, wherein the additive is carbonic anhydrase. Further, this process is enhanced where the sterilant fluid is agitated during the sterilization process.

carbonic anhydrase
reductions in CFUs: 6 log
